Key:
hyperlipidemia rats [1] = test: Effect of drugs on reducing blood lipid and body weight in high fat diet rats (Examples 5); assay type: in vivo, Wistar rats
Description: Take the medicine ZL004, ZL005 and ZL006, 0.5% CMC-Na (carboxymethyl cellulose sodium) solution (25 mg/ml or 50 mg/ml); take atorvastatin as positive control drug (0.5% CMC-Na solution, 0.5 mg/ml), for the following experiment.
120 Wistar rats (male weight; 150 g; feeding environment: SPF grade animal room, free feeding, 12 h light/12 h dark) after adaptive breeding for one week, were randomly divided into normal control group (10 rats) and high-fat diet group (110 rats), and each rat was then numbered. The normal control group were fed with normal diet, high fat diet group were fed with high fat diet (78.8% basal diet (purchased from Beijing, Australia to feed Co. Ltd.) +1% cholesterol, +10% egg yolk powder, +10% lard, +0.2% sodium cholate), 30 days later, after determination, the hyperlipemia rats of high fat diet group were randomly divided into 10 groups (high fat model group, atorvastatin group (atorvastatin 5 mg/kg daily administration), ZL004 high dose group (daily administration of ZL004 500 mg/kg), ZL004 low dose group (daily administration of ZL004 […]), ZL005 high dose group (daily administration of ZL005 500 mg/kg), ZL005 low dose group (daily administration of ZL005 […]), ZL006 high dose group (daily administration of ZL006 500 mg/kg), ZL006 low dose group (daily administration of ZL006 […]), 10 rats in each group. The normal control group and high fat model group daily orally administered 0.5% CMC-Na solution, drug admonition group were orally administered with corresponding drugs administered continuously for 30 days to determine the levels of total cholesterol (TC), triacylglycerol (TG), high density lipoprotein cholesterol (HDL-C), low density lipoprotein cholesterol (LDL-C) and weight. No safety problems were found in the experiment.

hyperlipidemia rats [2] = test: Further study on the effect of drugs on lowering blood fat and body weight in high fat diet rats, lower doses (Examples 6); assay type: in vivo, Wistar rats
Description: Take ZL004, ZL051 and ZL006 (0.5% CMC-Na solution, 7.5 mg/ml, 15 mg/ml, or 30 mg/ml), take atorvastatin as positive control drug (0.5% CMC-Na solution, 0.5 mg/ml), for the following experiment.
130 Wistar rats (male weight; 150 g; feeding environment: SPF grade animal room, free feeding, 12 h light/12 h dark) after adaptive breeding for one week, were randomly divided into normal control group (10 rats) and high-fat diet group (120 rats), and each rat was then numbered. The normal control group were fed with normal diet, high fat diet group were fed with high fat diet (78.8% basal diet (purchased from Beijing, Australia to feed Co. Ltd.)+1% cholesterol, +10% egg yolk powder, +10% lard, +0.2% sodium cholate), After 30 days, after determination, the hyperlipemia rats of high fat diet group were randomly divided into 10 groups (high fat model group, atorvastatin group (atorvastatin 5 mg/kg daily administration), ZL004 high dose group (daily administration of ZL004 300 mg/kg), ZL004 middle dose group (daily administration of ZL004 150 mg/kg), ZL004 low dose group (daily administration of ZL004 75 mg/kg), ZL051 high dose group (daily administration of ZL051 300 mg/kg), ZL051 middle dose group (daily administration of ZL051 150 mg/kg), ZL051 low dose group (daily administration of ZL051 75 mg/kg), ZL006 high dose group (daily administration of ZL006 300 mg/kg), ZL006 middle dose group (daily administration of ZL006 150 mg/kg), ZL006 low dose group (daily administration of ZL006 75 mg/kg), 10 rats in each group. The normal control group and high fat model group daily orally administered 0.5% CMC-Na solution, drug admonition group were orally administered with corresponding drugs administered continuously for 30 days to determine the levels of total cholesterol (TC), triacylglycerol (TG), high density lipoprotein cholesterol (HDL-C), low density lipoprotein cholesterol (LDL-C) and weight. No safety problems found in the experiment.

[3] = each dose (250 and 500 mg/kg), atorvastatin 5 mg/kg, oral daily 30 days, versus model group
[4] = high fat diet hyperlipidemia rats, oral daily for 30 days, 5 mg/kg, model group = 100%
[5] = high fat diet hyperlipidemia rats, oral daily for 30 days, 5 mg/kg, x ± s, n = 10
[6] = serum HDL cholesterol, high fat rats, oral daily 30 days, 5 mg/kg, model group = 100%, x ± s, n = 10
[7] = serum LDL cholesterol, high fat rats, oral daily 30 days, 5 mg/kg, model group = 100%, x ± s, n = 10
[8] = serum total cholesterol, high fat rats, oral daily 30 days, 5 mg/kg, model group = 100%, x ± s, n = 10
[9] = serum triacylglycerol, high fat rats, oral daily 30 days, 5 mg/kg, model group = 100%, x ± s, n = 10

## CC(C)c1c(C(=O)Nc2ccccc2)c(-c2ccccc2)c(-c2ccc(F)cc2)n1CC[C@@H](O)C[C@@H](O)CC(=O)O [Atorvastatin, atorvastatin]
Hyperlipidemia rats [1]; each dose (250 and 500 mg/kg), atorvastatin 5 mg/kg, oral daily 30 days, versus high fat model group
  effect on the body weight of hyperlipidemia rats (in words): reduced the body weight, close to or even lower than the normal control group
Hyperlipidemia rats [1]; [3]
  effect on HDL-C (in words): significantly increase
  effect on rat serum TC, TG, LDL-C (in words): significantly reduce
Hyperlipidemia rats [1]; [4]
  body weight % (/high fat model group): 90.77 ± 9.22%
Hyperlipidemia rats [1]; [5]
  body weight: 520.1 ± 52.8 g
Hyperlipidemia rats [1]; [6]
  HDL-C % (/model group): 178.57 ± 57.92 %
Hyperlipidemia rats [1]; [7]
  LDL-C % (/model group): 33.13 ± 11.62 %
Hyperlipidemia rats [1]; [8]
  TC % (/model group): 81.77 ± 14.65 %
Hyperlipidemia rats [1]; [9]
  TG % (/model group): 70.50 ± 23.19 %
Hyperlipidemia rats [2]; each dose (75, 150, 300 mg/kg), atorvastatin 5 mg/kg, oral daily 30 days, versus high fat model group
  effect on the body weight of hyperlipidemia rats (in words): reduced the body weight, close to or even lower than the normal control group
Hyperlipidemia rats [2]; each dose (75, 150, 300 mg/kg), atorvastatin 5 mg/kg, oral daily 30 days, versus model group
  effect on HDL-C (in words): significantly increase
Hyperlipidemia rats [2]; [4]
  body weight % (/high fat model group): 90.37 ± 12.13%
Hyperlipidemia rats [2]; [5]
  body weight: 465.7 ± 62.5 g
Hyperlipidemia rats [2]; middle/high doses (150, 300 mg/kg), atorvastatin 5 mg/kg, oral daily 30 days, versus model group
  effect on rat serum TC, TG, LDL-C (in words): significantly reduce
Hyperlipidemia rats [2]; [6]
  HDL-C % (/model group): 176.99 ± 37.57 %
Hyperlipidemia rats [2]; [7]
  LDL-C % (/model group): 67.93 ± 29.54 %
Hyperlipidemia rats [2]; [8]
  TC % (/model group): 77.03 ± 23.18 %
Hyperlipidemia rats [2]; [9]
  TG % (/model group): 69.99 ± 17.21 %
